The values that follow come from patent US6590140B1, “Metal-regulated transporters and uses therefor” (Trustees of Dartmouth College, priority 1996, dated 2003).

For one assay, the system named is zrt2 (ZHY2) cells. In words: Zinc-limited growth, zrt2 mutant yeast. Particulars: zrt2, LZM, 16 hours. The class given is cell-based, Saccharomyces cerevisiae. The method, then: Strains used were DY1457 (MATα ade6 can1 his3 leu2 trp1 ura3), ZHY1 (AMTα ade6 can1 his3 leu2 trp1 ura3 zrt1::LEU2), ZHY2 (MATα ade6 can1 his3 leu2 trp1 ura3 zrt2::HIS3), and ZHY3 (MATα ade6 can1 his3 leu2 trp1 ura3 zrt1::LEU2 zrt2::HIS3). Yeast were grown in YP or SD media (Sherman et al. (1986) Methods in Yeast Genetics, Cold Spring Harbor Laboratory, Cold Spring Harbor, N.Y.) supplemented with necessary auxotrophic requirements and either 2% glucose or 2% galactose. Zinc-limiting YP and SD agar plates contained either bathophenanthroline disulfonate (BPS, 200 μM) or EDTA (1 mM), respectively. […] The concentrations of free (i.e. unchelated) zinc were calculated using MAXCHELATOR software (Chris Patton, Stanford University). Cell number in liquid cultures was determined by measuring the absorbance of cell suspensions at 600 nm (OD600) and converting to cell number with a standard curve.
To further assess the role of the low affinity system as a source of zinc, growth of wild type and zrt2 cells in a zinc-limiting medium, LZM, supplemented with increasing amounts of zinc was examined. […] Number of cell divisions are plotted against [Zn]T and the calculated free zinc concentration ([Zn]F). […]

For assay [1], the system named is divalent cation uptake system. Particulars: total zinc; earlier studies (Fuhrmann and Rothstein 1968); read-out: apparent Km of zinc uptake by the divalent cation uptake system; cited from earlier work.
For assay [2], the system named is zrt1zrt2 double mutant strain ZHY3. The assay can be described thus: 65Zn uptake assay in zrt1zrt2 double mutant. Particulars: ZHY3 without ZIP gene, 5 minute time course using 10 mM Zn. The class given is cell-based, Saccharomyces cerevisiae. How it is done: Zinc uptake assays were performed as described previously for iron uptake (Eide et al. (1992) J. Biol. Chem. 267:20774-20781) except that ^65ZnCl2 (Amersham) and LZM-EDTA were substituted for ^59FeCI3 and LIM-EDTA, respectively. Cells were incubated for 5 minutes in LZM-EDTA plus the indicated concentration of ^65Zn, collected on glass fiber filters (Schleicher and Schuell), washed with 10 ml ice-cold SSW (1 mM EDTA, 20 mM trisodium citrate, 1 mM KH2PO4, 1 mM CaCl2, 5 mM MgSO4, 1 mM NaCl pH 4.2), and cell-associated radioactivity was measured by liquid scintillation counting. […] Michaelis-Menten kinetic values were determined using […] software (Intellikinetics, Princeton, N.J.). […] The statistical significance of the differences of values relative to controls was determined with one-way analysis of variance (ANOVA) followed by a Dunnett multiple comparison test. β-galactosidase activity was assayed in cells harvested at an OD600 of 0.5-2.0 as described by Guarente (Guarente, L. (1983) Methods Enzymol. 101:181-191) and activity is expressed as the change in absorbance at 420 nm×1000 divided by (min×ml of culture used×OD600 of the culture). Cell-associated zinc was measured in parallel cultures supplemented with tracer amounts of ^65Zn (10 μM) and nonradioactive zinc to the indicated final concentration. […]

In general, Km refers to the substrate concentration at which the rate is half of its maximum. For the compound `[Zn+2]` [zinc], in the assay on zrt2 (ZHY2) cells, the “calculated free zinc [Zn]F sufficient for maximum growth yield” value was about 6 pM and the “total zinc sufficient for maximum growth yield” value came out at 10 µM. In addition, the Km in assay [1] is about 500 µM. Also, in assay [2], the zinc uptake result is recorded as “essentially no detectable zinc uptake”.
